Assay results from ChEMBL document CHEMBL1201862, “PubChem BioAssay data set” (2004).
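The compound was tested at five concentrations on cells cultured in 96-well plates, with a 48-hour exposure period. GI50 marks 50% less growth.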 Calls of active or inactive are those of the source. Cut-off read from the data, not from the text of the source: active = GI50 up to about 1.1 µM and inactive = higher.

How the values were obtained:
Experiment in all cases: DTP human tumour cell line panel, 48 h
786-0 = test system: 786-0
EKVX = test system: EKVX
KM12 = test system: KM12
SK-MEL-28 = test system: SK-MEL-28
SF-268 = test system: SF-268
TK-10 = test system: TK-10
Malme-3M = test system: Malme-3M
A549 = test system: A549
SK-MEL-5 = test system: SK-MEL-5
SNB-19 = test system: SNB-19
NCI-H522 = test system: NCI-H522
UACC-62 = test system: UACC-62
SF-295 = test system: SF-295
LOX IMVI = test system: LOX IMVI
HOP-62 = test system: HOP-62
CCRF-CEM = test system: CCRF-CEM
UACC-257 = test system: UACC-257
RPMI-8226 = test system: RPMI-8226
MCF7 = test system: MCF7

| Structure (SMILES) | GI50 (786-0) | GI50 (EKVX) | GI50 (KM12) | GI50 (SK-MEL-28) | GI50 (SF-268) | GI50 (TK-10) | GI50 (Malme-3M) | GI50 (A549) | GI50 (SK-MEL-5) | GI50 (SNB-19) | GI50 (NCI-H522) | GI50 (UACC-62) | GI50 (SF-295) | GI50 (LOX IMVI) | GI50 (HOP-62) | GI50 (CCRF-CEM) | GI50 (UACC-257) | GI50 (RPMI-8226) | GI50 (MCF7) |
| --- | --- | --- | --- | --- | --- | --- | --- | --- | --- | --- | --- | --- | --- | --- | --- | --- | --- | --- | --- |
| CC1CC2C3CCC4=CC(=O)C=CC4(C)C3(F)C(O)CC2(C)C1(O)C(=O)CO.Cc1nnc(NS(=O)(=O)c2ccc(/N=N/c3cc(/N=N/c4ccc(S(=O)(=O)Nc5nnc(C)s5)cc4)c4c(NC(=O)C(Cl)Cl)cccc4c3OC(=O)C(Cl)Cl)cc2)s1 | 25.6 µM (inactive) | 34.4 µM (inactive) | 23.6 µM (inactive) | 20.8 µM (inactive) | 24 µM (inactive) | 43.3 µM (inactive) | 26.5 µM (inactive) | 11.6 µM (inactive) | 22.4 µM (inactive) | 48.5 µM (inactive) | 21.6 µM (inactive) | 33 µM (inactive) | 42.3 µM (inactive) | 33.3 µM (inactive) | 88.5 µM (inactive) | 1.08 µM (active) | 38.5 µM (inactive) | < 0.01 µM (active) |  |
| CN(C)CC1CC/C(=C\c2ccc(Cl)cc2)C1=O (stereo unspecified) | 2.2 µM (inactive) | 12.7 µM (inactive) | 3.46 µM (inactive) | 3.3 µM (inactive) | 7.03 µM (inactive) | 9.86 µM (inactive) | 7.11 µM (inactive) | 20.4 µM (inactive) | 11.9 µM (inactive) | 15.8 µM (inactive) | 3.48 µM (inactive) | 7.5 µM (inactive) | 17.2 µM (inactive) | 2.4 µM (inactive) | 22.4 µM (inactive) | 0.611 µM (active) | 8.17 µM (inactive) | 0.441 µM (active) | 1.87 µM (inactive) |
| Cc1ccccc1/C=C/c1csnn1 | > 100 µM (inactive) | > 100 µM (inactive) | > 100 µM (inactive) | > 100 µM (inactive) | > 46.2 µM (inactive) | > 100 µM (inactive) | > 100 µM (inactive) | > 57.3 µM (inactive) | > 100 µM (inactive) | > 100 µM (inactive) | > 100 µM (inactive) | > 100 µM (inactive) | > 100 µM (inactive) | > 58.7 µM (inactive) | > 100 µM (inactive) | 60.3 µM (inactive) | > 100 µM (inactive) | 33.4 µM (inactive) |  |
| CSc1sc(=S)sc1C(=O)N(C)c1ccccc1 | > 100 µM (inactive) | > 100 µM (inactive) | 91.8 µM (inactive) | > 100 µM (inactive) | > 100 µM (inactive) | > 100 µM (inactive) | > 100 µM (inactive) | > 100 µM (inactive) | > 100 µM (inactive) | > 100 µM (inactive) | 48.8 µM (inactive) | 78.7 µM (inactive) | > 100 µM (inactive) | > 100 µM (inactive) | > 100 µM (inactive) | 56 µM (inactive) |  | 52.7 µM (inactive) |  |
| O=C1C(=C/C=C2/SC(c3ccccc3)(c3ccccc3)c3ccccc32)C(=O)c2ccccc21 | > 100 µM (inactive) | > 100 µM (inactive) | > 100 µM (inactive) | > 100 µM (inactive) | > 100 µM (inactive) | > 100 µM (inactive) | > 100 µM (inactive) | > 100 µM (inactive) | > 100 µM (inactive) | > 100 µM (inactive) | > 100 µM (inactive) | > 100 µM (inactive) | > 100 µM (inactive) | > 100 µM (inactive) | > 100 µM (inactive) |  | > 100 µM (inactive) | > 100 µM (inactive) | > 100 µM (inactive) |
| CCN(CC)C(=O)CCn1ccc(=O)[nH]c1=O | > 100 µM (inactive) | > 100 µM (inactive) | > 100 µM (inactive) | > 100 µM (inactive) | > 100 µM (inactive) | > 100 µM (inactive) | > 100 µM (inactive) | > 100 µM (inactive) | > 100 µM (inactive) | > 100 µM (inactive) | > 100 µM (inactive) | > 100 µM (inactive) | > 100 µM (inactive) | > 100 µM (inactive) | > 100 µM (inactive) | > 100 µM (inactive) |  | > 100 µM (inactive) |  |
| CC(=O)O[C@@H]1CC(C)C2CC2C2=C(C(O)OC2O)[C@@H]1C(C)CCC=C(C)C (stereo partly specified) | 21.4 µM (inactive) | 40 µM (inactive) |  | 36.7 µM (inactive) | 25.8 µM (inactive) | 33.3 µM (inactive) | 27.8 µM (inactive) | 22.7 µM (inactive) | 25.3 µM (inactive) | 33.7 µM (inactive) | 15.3 µM (inactive) | 26.3 µM (inactive) |  | 20.8 µM (inactive) | 26.9 µM (inactive) | 24.8 µM (inactive) | 24.1 µM (inactive) | 25.2 µM (inactive) |  |
| COC(=O)C1=Cc2cc(OC)c(OC)c(OC)c2[C@H](c2cc(OC)c(OC)c(OC)c2)C1C(=O)OC (stereo partly specified) | > 100 µM (inactive) | > 100 µM (inactive) | > 100 µM (inactive) | > 100 µM (inactive) | > 100 µM (inactive) | > 100 µM (inactive) | > 100 µM (inactive) | > 100 µM (inactive) | > 100 µM (inactive) | > 100 µM (inactive) | > 100 µM (inactive) | > 100 µM (inactive) | > 100 µM (inactive) | > 100 µM (inactive) | > 100 µM (inactive) | > 100 µM (inactive) | > 100 µM (inactive) | > 100 µM (inactive) |  |
